Reference: patent publication US20100190846A1, “MICROBICIDAL AGENT AND MICROBICIDAL COMPOSITION” (priority 2006, published 2010)

Columns and labels:
Assay in all cases: Agar dilution method microbicidal test; on Growth on agar plate: key: +: grew; −: did not grow
Assay type in all cases: cell-based
[1] = test system: Candida sp. On Growth on agar plate: key: +: grew; −: did not grow.
Procedure, shortened: (§1)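 Plate-based MIC determination: 10 μL aliquots of 100-fold diluted MHB cultures inoculated onto compound-containing BHI agar (0.25–4.0 mg/mL final), then incubated overnight (18 hours, 37° C).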

[2] = test system: Streptococcus pneumoniae; on Growth on agar plate: key: +: grew; −: did not grow
Procedure, shortened: as §1

[3] = test system: Bacillus cereus; on Growth on agar plate: key: +: grew; −: did not grow
Procedure, shortened: (§2)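 MIC was determined by agar dilution in BHI agar at 0.25–4.0 mg/mL final compound, with DMSO as solvent (water for catechin). Plates were spot-inoculated with 10 μL of ~10^6/mL suspension and incubated 18 h at 37 °C. MIC was the lowest concentration preventing growth.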

[4] = test system: Bacillus subtilis ATCC6633; conditions: Bacillus subtilis ATCC 6633; on Growth on agar plate: key: +: grew; −: did not grow
Procedure, shortened: as §2

[5] = test system: Streptococcus pyogenes; on Growth on agar plate: key: +: grew; −: did not grow
Procedure, shortened: as §1

[6] = test system: Staphylococcus aureus; on Growth on agar plate: key: +: grew; −: did not grow
Procedure, shortened: as §1

[7] = test system: Salmonella sp. On Growth on agar plate: key: +: grew; −: did not grow.
Procedure, shortened: as §2

catechin [reference compound]
Growth on agar plate ([1]; 0.25 mg/mL): + | Growth on agar plate ([1]; 0.5 mg/mL): + | Growth on agar plate ([1]; 1.0 mg/mL): − | Growth on agar plate ([1]; 2.0 mg/mL): − | Growth on agar plate ([1]; 3.0 mg/mL): − | Growth on agar plate ([1]; 4.0 mg/mL): − | MIC ([1]; BHI agar, 37° C., 18 hours): 1000 µg/mL | Growth on agar plate ([2]; 0.25 mg/mL): + | Growth on agar plate ([2]; 0.5 mg/mL): + | Growth on agar plate ([2]; 1.0 mg/mL): − | Growth on agar plate ([2]; 2.0 mg/mL): − | Growth on agar plate ([2]; 3.0 mg/mL): − | Growth on agar plate ([2]; 4.0 mg/mL): − | MIC ([2]; BHI agar, 37° C., 18 hours): 1000 µg/mL | Growth on agar plate ([3]; 0.25 mg/mL): + | Growth on agar plate ([3]; 0.5 mg/mL): + | Growth on agar plate ([3]; 1.0 mg/mL): − | Growth on agar plate ([3]; 2.0 mg/mL): − | Growth on agar plate ([3]; 3.0 mg/mL): − | Growth on agar plate ([3]; 4.0 mg/mL): − | MIC ([3]; BHI agar, 37° C., 18 hours): 1000 µg/mL | Growth on agar plate ([4]; 0.25 mg/mL): + | Growth on agar plate ([4]; 0.5 mg/mL): + | Growth on agar plate ([4]; 1.0 mg/mL): + | Growth on agar plate ([4]; 2.0 mg/mL): + | Growth on agar plate ([4]; 3.0 mg/mL): − | Growth on agar plate ([4]; 4.0 mg/mL): − | MIC ([4]; BHI agar, 37° C., 18 hours): 3000 µg/mL | Growth on agar plate ([5]; 0.25 mg/mL): + | Growth on agar plate ([5]; 0.5 mg/mL): + | Growth on agar plate ([5]; 1.0 mg/mL): + | Growth on agar plate ([5]; 2.0 mg/mL): − | Growth on agar plate ([5]; 3.0 mg/mL): − | Growth on agar plate ([5]; 4.0 mg/mL): − | MIC ([5]; BHI agar, 37° C., 18 hours): 2000 µg/mL | Growth on agar plate ([6]; 0.25 mg/mL): + | Growth on agar plate ([6]; 0.5 mg/mL): + | Growth on agar plate ([6]; 1.0 mg/mL): − | Growth on agar plate ([6]; 2.0 mg/mL): − | Growth on agar plate ([6]; 3.0 mg/mL): − | Growth on agar plate ([6]; 4.0 mg/mL): − | MIC ([6]; BHI agar, 37° C., 18 hours): 1000 µg/mL | Growth on agar plate ([7]; 0.25 mg/mL): + | Growth on agar plate ([7]; 0.5 mg/mL): + | Growth on agar plate ([7]; 1.0 mg/mL): + | Growth on agar plate ([7]; 2.0 mg/mL): − | Growth on agar plate ([7]; 3.0 mg/mL): − | Growth on agar plate ([7]; 4.0 mg/mL): − | MIC ([7]; BHI agar, 37° C., 18 hours): 2000 µg/mL
